Measurements reported in US20050228180A1, “Alpha, omega-dicarboximide derivatives as useful uro-selective a1a adrenoceptor blockers” (priority 2002, published 2005).
Structures can show the parent of a compound that is named as a salt.

Tests used:
[1] = target: T1, α1A adrenoceptor (prostate) (Rattus norvegicus, UniProt P43140); assay: In vitro functional assay, isolated prostate, phenylepinephrine contraction; format: cell-based; settings: for Selectivity α1D/α1A: functional, from pKB; for Kb: rat prostate, phenylepinephrine, read-out: α Adrenoceptor Subtype (pKB) α1A (converted)
T1 construct: from tissue; host or cells: isolated prostate tissue
T1 sequence (P43140 1-466): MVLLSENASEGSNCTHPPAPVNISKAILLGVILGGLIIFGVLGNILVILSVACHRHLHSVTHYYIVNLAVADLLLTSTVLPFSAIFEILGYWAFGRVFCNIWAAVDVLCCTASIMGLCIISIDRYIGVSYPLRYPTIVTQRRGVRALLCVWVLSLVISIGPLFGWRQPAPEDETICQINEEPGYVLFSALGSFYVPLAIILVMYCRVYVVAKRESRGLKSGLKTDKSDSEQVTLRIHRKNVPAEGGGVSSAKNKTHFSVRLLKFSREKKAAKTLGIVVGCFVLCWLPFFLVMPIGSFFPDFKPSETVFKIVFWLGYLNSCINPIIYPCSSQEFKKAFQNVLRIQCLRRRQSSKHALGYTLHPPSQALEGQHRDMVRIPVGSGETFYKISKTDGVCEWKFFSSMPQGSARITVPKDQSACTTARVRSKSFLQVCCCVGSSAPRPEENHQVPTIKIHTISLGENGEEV
Excerpt: (§1) In order to study selectivity of action of these compounds towards different a-adrenoceptor subtypes, the ability of these compounds to antagonise (α1D) prostate (α1A) and spleen (α1B) was studied. Aorta and spleen tissues were isolated from urethane anaesthetized (1.5 g/kg) male wister rats. Isolated tissues were mounted in organ bath containing Krebs Henseleit buffer of the following composition (mM): NaCl 118; KCl 4.7; CaCl2 2.5; MgSO4 7H2O 1.2; NaHCO3 25; KH2PO4 1.2; glucose 11.5. Buffer was maintained at 37° C. and aereated with a mixture of 95% O2 and 5% CO2. A resting tension of 2 g (aorta) or 1 g (spleen and prostate) was applied to tissues. Contractile response was monitored using a force displacement transducer and recorded on chart recorders. Tissues were allowed to equilibrate for 2 hours. At the end of equilibration period, concentration response curves to norepinephrine (aorta) and phenylepinephrine (spleen and prostate) were obtained in the absence and presence of tested compound (at concentration of […]). Antagonist affinity was calculated and expressed as pKB values in Table II.

α1D adrenoceptor (aorta) = target: T2, α1D adrenoceptor (aorta) (Rattus norvegicus, UniProt P23944); assay: In vitro functional assay, isolated aorta, norepinephrine contraction; format: cell-based; settings: read-out: α Adrenoceptor Subtype (pKB) α1D (converted)
T2 construct: Isolated tissues were mounted in organ bath containing Krebs Henseleit buffer; from tissue; host or cells: isolated rat aorta
T2 sequence (P23944 1-561): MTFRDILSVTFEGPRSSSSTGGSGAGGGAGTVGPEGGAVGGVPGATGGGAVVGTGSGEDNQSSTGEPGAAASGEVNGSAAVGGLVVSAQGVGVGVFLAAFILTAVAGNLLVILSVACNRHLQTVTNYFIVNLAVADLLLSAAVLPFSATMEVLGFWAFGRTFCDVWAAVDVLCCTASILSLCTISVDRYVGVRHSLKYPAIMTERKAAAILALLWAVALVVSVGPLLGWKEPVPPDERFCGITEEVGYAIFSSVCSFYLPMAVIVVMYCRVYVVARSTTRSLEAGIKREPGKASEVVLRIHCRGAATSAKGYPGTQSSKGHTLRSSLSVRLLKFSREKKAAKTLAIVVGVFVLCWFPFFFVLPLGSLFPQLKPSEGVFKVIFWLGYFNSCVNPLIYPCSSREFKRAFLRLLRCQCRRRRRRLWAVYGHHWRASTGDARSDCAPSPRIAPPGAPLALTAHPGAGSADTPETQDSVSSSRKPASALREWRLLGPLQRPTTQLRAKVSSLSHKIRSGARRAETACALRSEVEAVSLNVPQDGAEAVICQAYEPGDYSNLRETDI
Excerpt: as §1

α1B adrenoceptor = target: T3, α1B adrenoceptor (Rattus norvegicus, UniProt P15823); assay: Radioligand binding, [3H] prazosin displacement, rat liver membranes; settings: read-out: Affinity (Ki) α1B (Rat Liver)
T3 construct: from tissue; host or cells: rat liver membranes
T3 sequence (P15823 1-515): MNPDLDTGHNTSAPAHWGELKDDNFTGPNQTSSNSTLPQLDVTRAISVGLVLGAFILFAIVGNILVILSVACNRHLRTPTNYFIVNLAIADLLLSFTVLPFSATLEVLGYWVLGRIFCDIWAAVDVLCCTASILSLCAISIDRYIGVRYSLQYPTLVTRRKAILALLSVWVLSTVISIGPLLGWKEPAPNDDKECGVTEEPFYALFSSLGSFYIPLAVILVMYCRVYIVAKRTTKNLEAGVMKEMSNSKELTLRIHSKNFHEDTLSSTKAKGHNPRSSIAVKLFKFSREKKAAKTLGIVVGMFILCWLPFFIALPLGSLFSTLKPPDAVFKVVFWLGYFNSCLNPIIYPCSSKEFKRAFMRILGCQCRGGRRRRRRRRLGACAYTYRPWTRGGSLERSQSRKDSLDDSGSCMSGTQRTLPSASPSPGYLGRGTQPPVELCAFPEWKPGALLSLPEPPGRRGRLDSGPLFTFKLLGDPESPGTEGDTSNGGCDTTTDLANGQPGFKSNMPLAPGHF
Experimental: (§2) Receptor binding assays were performed using native a-adrenoceptors. The affinity of different compounds for α1A and α1B adrenoceptor subtypes was evaluated by studying their ability to displace specific [^3H] prazosin binding from the membranes of rat submaxillary and liver respectively (Michel et al., Br J Pharmacol, 1989: 98:883). The binding assays were performed according to U+Prichard et al. (Eur J Pharmacol, 1978; 50:87 with minor modifications.
(§3) Submaxillary glands were isolated immediately after sacrifice. The liver was perfused with buffer (Tris HCl 50 mM, NaCl 100 mM, 10 mM EDTA pH 7.4). The tissues were homogenised in 10 volumes of buffer (Tris HCl 50 mM, NaCl 100 mM, 10 mM EDTA pH 7.4). The homogenate was filtered through two layers of wet gauge and filtrate was centrifuged at 500 g for 10 min. The supernatant was subsequently centrifuged at 40,000 g for 45 min. The pellet thus obtained was resuspended in the same volume of assay buffer (Tris HCl 50 mM, 5 mM EDTA pH 7.4) and was stored at −70° C. until the time of assay.
(§4) The membrane homogenates (150-250 μg protein) were incubated in 250 μl of assay buffer (Tris HCl 50 mM, EDTA 5 mM, pH 7.4) at 24-25° C. for 1 hour. Non specific binding was determined in the presence of 300 nM prazosin. The incubation was terminated by vacuum filtration over GF/B fibre filters. The filters were then washed with ice cold 50 mM Tris HCl buffer (pH 7.4). The filtermats were dried and bound radioactivity retained on filters was counted. The IC50 and Kd were estimated by using the non-linear curve-fitting program using G Pad Prism software. The value of inhibition constant Ki was calculated from competitive binding studies by using Cheng & Prusoff equation (Cheng & Prusoff, Biochem Pharmacol, 1973, 22: 3099-3108), Ki=IC50/(1+L/Kd) where L is the concentration of [^3H] prazosin used in the particular experiment (Table 1).

α1A adrenoceptor = target: T4, α1A adrenoceptor (Rattus norvegicus, UniProt P43140); assay: Radioligand binding, [3H] prazosin displacement, rat submaxillary membranes; settings: for Ki: [3H] prazosin displacement, rat submaxillary membranes, read-out: Affinity (Ki) α1A (Rat Submaxillary); for α1B/α1A: ratio of binding affinities, rat liver / rat submaxillary
T4 construct: from tissue; host or cells: rat submaxillary gland membranes
T4 sequence (P43140 1-466): T1 sequence (P43140 1-466)
Experimental: as §2, §3, §4

Row | Structure (SMILES) | Selectivity α1D/α1A [1] | Kb [1] [nM] | Kb (α1D adrenoceptor (aorta)) [nM] | Ki (α1B adrenoceptor) [nM] | Ki (α1A adrenoceptor) [nM] | α1B/α1A (α1A adrenoceptor)
1 | CC(C)Oc1cc(N)ccc1N1CCN(CCCN2C(=O)C3CC=CCC3C2=O)CC1.Cl (stereo not drawn) [Compound No. 26, 2-[3-{4-(2-Isopropoxy-4-aminophenyl)piperazin-1-yl}propyl]-3a,4,7,7a-tetrahydro-1H-isoindole-1,3(2H)-dione hydrochloride] | 105 | 1.58 | 166 | 2090 | 8.83 | 237
2 | CC(C)Oc1ccccc1N1CCN(CC(O)CN2C(=O)CCCC2=O)CC1.Cl (stereo not drawn) [Compound No. 29, 1-[4-(2-Isopropoxyphenyl)piperazin-1-yl]-2-hydroxy-3-(2,6-dioxopiperidin-1-yl)propane hydrochloride] | 45 | 0.229 | 10.2 | 238 | 2.8 | 85
3 | CC(C)Oc1ccccc1N1CCN(CC(O)CN2C(=O)C3CC4OC4CC3C2=O)CC1 (stereo not drawn) [Compound No. 30, 2-[3-{4-(2-Isopropoxyphenyl)piperazin-1-yl}-2-hydroxypropyl]-5,6-epoxy-3a,4,5,6,7,7a-hexahydro-1H-isoindole-1,3(2H)-dione] | 5.2 | 1.66 | 8.71 | 393 | 1.7 | 231
4 | O=C1C2CC3OC3CC2C(=O)N1CC(O)CN1CCN(c2ccccc2OCC(F)(F)F)CC1 (stereo not drawn) [Compound No. 34, 2-[3-{4-(2-(2,2,2-Trifluoroethoxy)phenyl)piperazin-1-yl}-2-hydroxypropyl]-5,6-epoxy-3a,4,5,7,7a-hexahydro-1H-isoindole-1,3(2H)-dione] | 15 | 1.26 | 19.1 | 311 | 1.95 | 159
5 | CC(=O)OC1C=CCC2C(=O)N(CCCN3CCN(c4ccccc4OC(C)C)CC3)C(=O)C12 (stereo not drawn) [Compound No. 40, 2-[3-{4-(2-Isopropoxyphenyl)piperazin-1-yllpropyl]4-acetoxy-3a,4,7,7a-tetrahydro-1H-isoindole-1,3(2H)-dione hydrochloride] | 4.5 | 0.339 | 1.51 | 143 | 0.82 | 174
6 | CC(C)Oc1ccccc1N1CCN(CCCN2C(=O)C3C(c4ccccc4)C=CC(c4ccccc4)C3C2=O)CC1 (stereo not drawn) [Compound No. 77, 2-[3-{4-(2-Isopropoxyphenyl)piperazin-1-yllpropyl]-4,7-diphenyl-3a,4,7,7a-tetrahydro-1H-isoindole-1,3(2H)-dione hydrochloride] |  |  |  | 916 | 485 | 1.9
7 | COc1ccccc1N1CCN(CCCN2C(=O)C3C(c4ccccc4)C=CC(c4ccccc4)C3C2=O)CC1.Cl (stereo not drawn) [Compound No. 78, 2-[3-{4-(2-Methoxyphenyl)piperazin-1-yl}propyl]-4,7-diphenyl-3a,4,7,7a-tetrahydro-1H-isoindole-1,3(2H)-dione hydrochloride] |  |  |  | 334 | 322 | 1

Second part, the compound after the results:

Row | Selectivity α1D/α1A [1] | Kb [1] [nM] | Kb (α1D adrenoceptor (aorta)) [nM] | Ki (α1B adrenoceptor) [nM] | Ki (α1A adrenoceptor) [nM] | α1B/α1A (α1A adrenoceptor) | Structure (SMILES)
8 | 1.3 | 0.427 | 0.575 | 97 | 1.5 | 65 | CCOc1ccccc1N1CCN(CCCN2C(=O)C3CCC(O)CC3C2=O)CC1.Cl (stereo not drawn) [Compound No. 18, 2-[3-{4-(2-Ethoxyphenyl)piperazin-1-yl}propyl]-5-hydroxy-3a,4,5,6,7,7a-hexahydro-1H-isoindole-1,3(2H)-dione hydrochloride]
9 | 3.3 | 1.45 | 4.79 | 91 | 2.3 | 40 | O=C1C2CC=CCC2C(=O)N1CC(O)CN1CCN(c2ccccc2OCC(F)(F)F)CC1 (stereo not drawn) [Compound No. 31, 2-[3-{4-(2-(2,2,2-Trifluoroethoxyphenyl)piperazin-1-yl}-2-hydroxypropyl]-3a,4,7,7a-tetrahydro-1H-isoindole-1,3(2H)-dione hydrochloride]
10 | 23 | 0.676 | 15.8 | 51 | 0.18 | 283 | O=C1C2CC3OC3CC2C(=O)N1CCCN1CCN(c2ccccc2OCC(F)(F)F)CC1 (stereo not drawn) [Compound No. 32, 2-[3-{4-(2-(2,2,2-Trifluoroethoxy)phenyl)piperazin-1-yl}propyl]-5,6-epoxy-3a,4,5,6,7,7a-hexahydro-1H-isoindole-1,3(2H)-dione]
11 |  |  |  | 71 | 2.3 | 31 | COC1=C(OC)CC2C(=O)N(CCCN3CCN(c4ccccc4OC(C)C)CC3)C(=O)C2C1 (stereo not drawn) [Compound No. 75, 2-[3-{4-(2-Isopropoxyphenyl)piperazin-1-yl}propyl]-5,6-dimethoxy-3a,4,7,7a-tetrahydro-1H-isoindole-1,3 (21H)-dione hydrochloride]
12 |  |  |  | 192 | 1.4 | 137 | COC1CC2C(=O)N(CCCN3CCN(c4ccccc4OC(C)C)CC3)C(=O)C2CC1OC.Cl (stereo not drawn) [Compound No. 76, 2-[3-{4-(2-Isopropoxyphenyl)piperazin-1-yl}propyl]-5,6-dimethoxy-3a,4,5,6,7,7a-hexahydro-1H-isoindole-1,3(2H)-dione hydrochloride]
